Where two headings read alike, the source gives them in different places.
Experiments:
[1] = tested on: B-cell non-Hodgkin lymphoma; test: Single agent clinical study in B-cell non-Hodgkin lymphoma; assay type: in vivo
Protocol: As of Sep. […] See U.S. patent application Ser. No. 13/661,678 and International Patent Application No. PCT/US2012/062133, both filed on Oct. 26, 2012, each of which is hereby incorporated by reference in its entirety. […] Studies are ongoing and additional dose levels currently being investigated include: 1000 mg QD, 1250 mg QD, 375 mg BID and 500 mg BID.

Solubility = assay type: physicochemical
Environmental stability = assay type: physicochemical

| SMILES | maximum tolerated dose (MTD) ([1]; single agent, up to 750 mg PO QD) | solubility (Solubility; ethanol, organic solvent or mixture, read-out: solubility in ethanol) | solubility (Solubility; water, read-out: solubility in water) | environmental instabilities (heat, acid, base) (Environmental stability) | evaluable B-NHL patients with decreased lymph node size ([1]; monotherapy) | patients with B-cell non-Hodgkin lymphoma who experienced stable disease ([1]; monotherapy, as of Sep. 11, 2012) |
| --- | --- | --- | --- | --- | --- | --- |
| C=CC(=O)Nc1cccc(Nc2nc(Nc3ccc(OCCOC)cc3)ncc2F)c1 [Compound 1, N-(3-(5-fluoro-2-(4-(2-methoxyethoxyl)phenylamino)pyrimidin-4-ylamino)phenyl)acrylamide] | has not yet been reached |  |  |  |  |  |
| C=CC(=O)Nc1cccc(Nc2nc(Nc3ccc(OCCOC)cc3)ncc2F)c1.O=S(=O)(O)c1ccccc1 [Compound 1 besylate, N-(3-(5-fluoro-2-(4-(2-methoxyethoxyl)phenylamino)pyrimidin-4-ylamino)phenyl)acrylamide besylate] |  | ~10000 µg/mL | ~160 µg/mL | no environmental instabilities | Six of eleven | 9 out of 17 |

From patent US20150139979A1, “METHODS OF TREATING A DISEASE OR DISORDER ASSOCIATED WITH BRUTON'S TYROSINE KINASE” (Celgene Avilomics Research, Inc., priority 2013, published 2015)
